Experimental data from patent publication US7999115B2, “Spiro antibiotic derivatives” (Actelion Pharmaceutical Ltd., priority 2006, dated 2011).
In brackets after ≈: the same amount, converted by molar mass.

Legend:
Assay type in all cases: cell-based
S. aureus A798 = assay: MIC by broth microdilution (NCCLS), S. aureus A798; conditions: cation-adjusted Mueller-Hinton Broth, pH 7.2-7.3; for MIC: Staphylococcus aureus, A798, second table
Method: (§1) These assays have been performed following the description given in “Methods for dilution Antimicrobial Susceptibility Tests for Bacteria that Grow Aerobically, 4th ed.; Approved standard: NCCLS Document M7-A4; National Committee for Clinical Laboratory Standards Villanova, Pa., USA, 1997”. Minimal inhibitory concentrations (MICs; mg/l) were determined in cation-adjusted Mueller-Hinton Broth (BBL) by a microdilution method following NCCLS guidelines (National Committee for Clinical Laboratory Standards. Methods for Dilution Antimicrobial Susceptibility). The pH of the test medium was 7.2-7.3. All Example compounds were tested against several Gram positive and Gram negative bacteria.

M. catarrhalis A894 = assay: MIC by broth microdilution (NCCLS), M. catarrhalis A894; conditions: cation-adjusted Mueller-Hinton Broth, pH 7.2-7.3
Method: as §1

S. pneumoniae 49619 = assay: MIC by broth microdilution (NCCLS), S. pneumoniae 49619; conditions: cation-adjusted Mueller-Hinton Broth, pH 7.2-7.3
Method: as §1

COc1ccc2nccc([C@@H](O)CN3CC[C@]4(CN(c5ccc6c(c5)OCCO6)C(=O)O4)[C@H](CCO)C3)c2c1 (racemic) [Example 8, (5RS, 6RS)-3-(2,3-dihydro-benzo[1,4]dioxin-6-yl)-6-(2-hydroxy-ethyl)-8-[(2RS)-2-hydroxy-2-(6-methoxy-quinolin-4-yl)-ethyl]-1-oxa-3,8-diaza-spiro[4.5]decan-2-one]
MIC (S. aureus A798): 1 µg/mL (≈ 1.87 µM)

COc1ccc2nccc(CCC3(O)CCC4(CC3)CN(c3ccc5c(c3)NC(=O)CO5)C(=O)O4)c2n1 (stereo not drawn) [Example 15, cis or trans-6-{8-hydroxy-8-[2-(6-methoxy-[1,5]naphthyridin-4-yl)-ethyl]-2-oxo-1-oxa-3-aza-spiro[4.5]dec-3-yl}-4H-benzo[1,4]oxazin-3-one]
MIC S. aureus A798 (S. aureus A798; second table): ≦0.031 mg/l

COc1ccc2nccc(NC(=O)C3CCC4(CC3)CN(c3ccc5c(c3)OCCO5)C(=O)O4)c2n1 (mixture of isomers) [Example 9, cis/trans-3-(2,3-dihydro-benzo[1,4]dioxin-6-yl)-2-oxo-1-oxa-3-aza-spiro[4.5]decane-8-carboxylic acid (6-methoxy-[1,5]naphthyridin-4-yl)-amide]
MIC S. aureus A798 (S. aureus A798; second table): ≦0.031 mg/l

COc1ccc2ncnc(OC[C@H]3CC[C@@]4(CC3)CN(c3ccc5c(c3)OCCO5)C(=O)O4)c2c1 [Example 19, cis-3-(2,3-dihydro-benzo[1,4]dioxin-6-yl)-8-(6-methoxy-quinazolin-4-yloxymethyl)-1-oxa-3-aza-spiro[4.5]decan-2-one]
MIC M. catarrhalis A894 (M. catarrhalis A894): 0.5 µg/mL (≈ 1.05 µM) | MIC S. aureus A798 (S. aureus A798): 0.125 µg/mL (≈ 0.262 µM) | MIC S. aureus A798 (S. aureus A798; second table): 0.125 µg/mL (≈ 0.262 µM) | MIC S. pneumoniae 49619 (S. pneumoniae 49619): 0.25 µg/mL (≈ 0.524 µM)

COc1ccc2nccc(/C=C/C3CCC4(CC3)CN(c3ccc5c(c3)NC(=O)CS5)C(=O)O4)c2c1 (mixture of isomers) [Example 18, cis/trans-6-{8-[(E)-2-(6-methoxy-quinolin-4-yl)-vinyl]-2-oxo-1-oxa-3-aza-spiro[4.5]dec-3-yl}-4H-benzo[1,4]thiazin-3-one]
MIC M. catarrhalis A894 (M. catarrhalis A894): ≦0.031 mg/l | MIC S. aureus A798 (S. aureus A798): ≦0.031 mg/l | MIC S. aureus A798 (S. aureus A798; second table): ≦0.031 mg/l | MIC S. pneumoniae 49619 (S. pneumoniae 49619): 0.125 µg/mL

COc1ccc2nccc(CCC3CCC4(CC3)CN(c3ccc5c(c3)NC(=O)CO5)C(=O)O4)c2n1 (mixture of isomers) [Example 16, cis/trans-6-{8-[2-(6-methoxy-[1,5]naphthyridin-4-yl)-ethyl]-2-oxo-1-oxa-3-aza-spiro[4.5]dec-3-yl}-4H-benzo[1,4]oxazin-3-one]
MIC S. aureus A798 (S. aureus A798; second table): ≦0.031 mg/l

COc1ccc2nccc(/C=C/C3CCC4(CC3)CN(c3ccc5c(c3)OCCO5)C(=O)O4)c2c1 (mixture of isomers) [Example 17, cis/trans-3-(2,3-dihydro-benzo[1,4]dioxin-6-yl)-8-[(E)-2-(6-methoxy-quinolin-4-yl)-vinyl]-1-oxa-3-aza-spiro[4.5]decan-2-one]
MIC S. aureus A798 (S. aureus A798; second table): 2 µg/mL

COc1ccc2nccc(CCC3(O)CCC4(CC3)CN(c3ccc5c(c3)OCCO5)C(=O)O4)c2n1 (stereo not drawn) [Example 11, cis or trans-3-(2,3-dihydro-benzo[1,4]dioxin-6-yl)-8-hydroxy-8-[2-(6-methoxy-[1,5]naphthyridin-4-yl)-ethyl]-1-oxa-3-aza-spiro[4.5]decan-2-one]
MIC S. aureus A798 (S. aureus A798; second table): 0.25 µg/mL (≈ 0.509 µM)

COc1ccc2nccc(C(O)CN3CCC4(CC3)CN(c3ccc5c(c3)OCCO5)C(=O)O4)c2c1 (racemic) [Example 4, 3-(2,3-dihydro-benzo[1,4]dioxin-6-yl)-8-[(2RS)-2-hydroxy-2-(6-methoxy-quinolin-4-yl)-ethyl]-1-oxa-3,8-diaza-spiro[4.5]decan-2-one]
MIC (S. aureus A798): ≤ 0.031 µg/mL

C=CC[C@@H]1CN(C[C@H](O)c2ccnc3ccc(OC)cc23)CC[C@]12CN(c1ccc3c(c1)OCCO3)C(=O)O2 (racemic) [Example 6, (5RS, 6RS)-6-allyl-3-(2,3-dihydro-benzo[1,4]dioxin-6-yl)-8-[(2RS)-2-hydroxy-2-(6-methoxy-quinolin-4-yl)-ethyl]-1-oxa-3,8-diaza-spiro[4.5]decan-2-one]
MIC (S. aureus A798): 1 µg/mL (≈ 1.88 µM)

COc1ccc2nccc(OCC3CCC4(CC3)CN(c3ccc5c(c3)OCCO5)C(=O)O4)c2n1 (stereo not drawn) [Example 3, cis-3-(2,3-dihydro-benzo[1,4]dioxin-6-yl)-8-(6-methoxy-[1,5]naphthyridin-4-yloxymethyl)-1-oxa-3-aza-spiro[4.5]decan-2-one]
MIC S. aureus A798 (S. aureus A798; second table): 2 µg/mL (≈ 4.19 µM)

COc1ccc2nccc(C(O)CN3CCC4(CC3)CN(c3ccc5c(c3)NC(=O)CS5)C(=O)O4)c2c1 (racemic) [Example 5, 6-{8-[(2RS)-2-hydroxy-2-(6-methoxy-quinolin-4-yl)-ethyl]-2-oxo-1-oxa-3,8-diaza-spiro[4.5]dec-3-yl}-4H-benzo[1,4]thiazin-3-one]
MIC (S. aureus A798): ≤ 0.031 µg/mL

COC(=O)C[C@@H]1CN(C[C@H](O)c2ccnc3ccc(OC)cc23)CC[C@]12CN(c1ccc3c(c1)OCCO3)C(=O)O2 (racemic) [Example 7, (5RS,6RS)-{3-(2,3-dihydro-benzo[1,4]dioxin-6-yl)-8-[(2RS)-2-hydroxy-2-(6-methoxy-quinolin-4-yl)-ethyl]-2-oxo-1-oxa-3,8-diaza-spiro[4.5]dec-6-yl}-acetic acid methyl ester]
MIC (S. aureus A798): 2 µg/mL (≈ 3.55 µM)

COc1ccc2nccc(CCC3(O)CCC4(CC3)CN(c3ccc5c(c3)NC(=O)CS5)C(=O)O4)c2n1 (stereo not drawn) [Example 12, cis or trans-6-{8-hydroxy-8-[2-(6-methoxy-[1,5]naphthyridin-4-yl)-ethyl]-2-oxo-1-oxa-3-aza-spiro[4.5]dec-3-yl}-4H-benzo[1,4]thiazin-3-one]
MIC S. aureus A798 (S. aureus A798; second table): ≦0.031 mg/l

COc1ccc2nccc(OCC3CCC4(CC3)CN(c3ccc5c(c3)OCCO5)C(=O)O4)c2c1 (stereo not drawn) [Example 2, cis-3-(2,3-dihydro-benzo[1,4]dioxin-6-yl)-8-(6-methoxy-quinolin-4-yloxymethyl)-1-oxa-3-aza-spiro[4.5]decan-2-one]
MIC S. aureus A798 (S. aureus A798; second table): 0.25 µg/mL (≈ 0.525 µM)

COc1ccc2nccc(CCC3(O)CCC4(CC3)CN(c3ccc5c(c3)NC(=O)CS5)C(=O)O4)c2n1 (stereo not drawn) [Example 13, cis or trans-6-{8-hydroxy-8-[2-(6-methoxy-[1,5]naphthyridin-4-yl)-ethyl]-2-oxo-1-oxa-3-aza-spiro[4.5]dec-3-yl}-4H-benzo[1,4]thiazin-3-one]
MIC S. aureus A798 (S. aureus A798; second table): ≦0.031 mg/l

(5R,6R,8S)-3-(2,3-dihydro-benzo[1,4]dioxin-6-yl)-8-[(2R)-2-hydroxy-2-(6-methoxy-[1,5]naphthyridin-4-yl)-ethyl]-6-hydroxymethyl-1,7-dioxa-3-aza-spiro[4.5]decan-2-one and (5R,6R,8S)-3-(2,3-dihydro-benzo[1,4]dioxin-6-yl)-8-[(2S)-2-hydroxy-2-(6-methoxy-[1,5]naphthyridin-4-yl)-ethyl]-6-hydroxymethyl-1,7-dioxa-3-aza-spiro[4.5]decan-2-one [Example 1]
MIC S. aureus A798 (S. aureus A798; second table): 0.5 µg/mL

COc1ccc2nccc(CCC3(O)CCC4(CC3)CN(c3ccc5c(c3)OCCO5)C(=O)O4)c2n1 (stereo not drawn) [Example 10, cis or trans-3-(2,3-dihydro-benzo[1,4]dioxin-6-yl)-8-hydroxy-8-[2-(6-methoxy-[1,5]naphthyridin-4-yl)-ethyl]-1-oxa-3-aza-spiro[4.5]decan-2-one]
MIC S. aureus A798 (S. aureus A798; second table): 0.125 µg/mL (≈ 0.254 µM)

COc1ccc2nccc(CCC3(O)CCC4(CC3)CN(c3ccc5c(c3)NC(=O)CO5)C(=O)O4)c2n1 (stereo not drawn) [Example 14, cis or trans-6-{8-hydroxy-8-[2-(6-methoxy-[1,5]naphthyridin-4-yl)-ethyl]-2-oxo-1-oxa-3-aza-spiro[4.5]dec-3-yl}-4H-benzo[1,4]oxazin-3-one]
MIC S. aureus A798 (S. aureus A798; second table): ≦0.031 mg/l
